Where two headings read alike, the source gives them in different places.
Legend:
[1] = tested on: embryonic stem cells (D3) and 3T3 fibroblasts; experiment: mouse Embryonic Stem Cell Test (mEST); assay type: cell-based; settings: <0.5 negative, >0.6 positive, 0.5-0.6 borderline
From the text: The in vitro mouse Embryonic Stem Cell Test (mEST) assay is an implemented routine assay at Roche. The original EST was developed by Horst Spielmann and his group in 1997 as an in vitro model for the screening of embryotoxicity, based on a blastocyst-derived permanent embryonic mouse ESC (mESC) D3 cell line derived from mouse 129 strains and was validated by European Centre for the Validation of Alternative Methods (ECVAM).
We further optimized and modified the approach allowing for the application of the assay to pharmaceutical compounds.
The cytotoxicity (inhibition of growth) of 3T3 fibroblasts, which represents differentiated cells and the cytotoxicity of undifferentiated embryonic stem cells (D3) after 10 days of substance treatment serve as two assay endpoints. This is determined by the use of dehydrogenase enzymes, which are present in the intact mitochondria of living cells to convert yellow soluble substrate 3-(4,5-dimethythiazol-2-yl)-2,5-diphenyl tetrazolium bromide (MTT) into a dark blue insoluble formazan product, which gets sequestered within the cells and is detected quantitatively using an absorbance reader (570 nm) after solubilizing the cell membrane.
The third endpoint is the inhibition of differentiation of ES cells into myocards which are cardiac muscle cells after 10 days of treatment. The beating of this cells is evaluated by microscopy.
• 1) Cell passage with trypsin 0.05% EDTA for D3 cells. • 2) Assembly of the cell suspension: dilute cells to 2.5×10^4/mL with 18 ml media (for each test) in 50 mL Falcon tubes. • 3) Prepare the petri dishes (PD): add 5-10 mL sterile Dulbecco's PBS (Gibco) into each dish bottom, distribute over the whole dish. • 4) Dilution series of test compound in Eppendorf tubes: add 5 μL of compound (1:400 dilution) and 5 μL control solution (DMSO) to 2 mL cell suspension, vortex. • 5) Preparation of hanging drops in petridishes: vortex tube, aspirate suspension with automatic pipette and multi-dispense 20 μL drops onto the lid of the petri dish, add 2 mL in total in a concentric circle of drops (˜100 drops); quickly but smoothly turn the cover and put on PD; incubate for 3 days at 37° C./5% CO2.
• 1) Dilution series of compound in 14 mL PP tubes • 6 tubes for the concentrations; fill with 5 mL assay media • 1 tube for DMSO (solvent control) fill with 5 mL assay media • 2) Dilution series of compound in Eppendorf tubes • Add 12.5 μL of compound (1:400 dilution) and 12.5 μL control solution, vortex • 3) Transfer of embryoid bodies in a bacterial Petri dish • Carefully turn PD lid, check the drops for fungus contamination • Rinse several times the drops down with 5 mL of the prepared solution • Transfer in a bacterial petri dish Incubate for 3 days at 37° C./5% CO2 […]

[2] = Single dose pharmacokinetics (PK) study in male Wister-Han rats; assay type: in vivo, rat; settings: for F: dose normalized AUC0-last PO 10 mg/kg vs IV 2 mg/kg; for AUC(0-t) / Cmax / clearance / half-life / Vd: rat, plasma; for Vd: read-out: Vss
Method: Pharmacokinetic properties of selected compounds were assessed by single dose PK studies in Male Wister-Han Rats (vendor: Beijing Vital River Laboratory Animal Technology Co., Ltd). Briefly, two groups of animals were administered a single dose of respective compound intravenously (IV, bolus) at 2 mg/kg or orally (PO, by gavage) at 10 mg/kg. Blood samples (approximately 150 μL) were collected via Jugular vein at 5 min (only for IV), 15 min, 30 min, 1 h, 2 h, 4 h, 7 h and 24 h post-dose. Blood samples were placed into tubes containing EDTA-K2 anticoagulant and centrifuged at 3000 rpm for 15 min at 4° C. to separate plasma from the samples. After centrifugation, the resulting plasma was transferred to clean tubes for bioanalysis with LC/MS/MS. The pharmacokinetic parameters were calculated using non-compartmental analysis. The volume of distribution (Vss), half-life (T1/2) and clearance (CL) were obtained based on the plasma concentration-time curve after IV dose. The peak concentration (Cmax) was recorded directly from experimental observations after PO dose. The area under the plasma concentration-time curve (AUC0-last) was calculated using the linear trapezoidal rule up to the last detectable concentration. The bioavailability (F) was calculated based on the dose normalized AUC0-last after IV and PO dose.
The Vss of a drug represents the degree to which a drug is distributed in body tissue rather than the plasma. Vss is directly proportional with the amount of drug distributed into tissue. A higher Vss indicates a greater amount of tissue distribution.

[3] = IV 2 mg/kg, read-out: IV AUC0-last
[4] = PO 10 mg/kg, read-out: PO AUC0-last

| Structure (SMILES) | Predictive scores D12_3 [1] | F [2] [%] | AUC(0-t) [2, 3] [ng·h/mL] | Cmax ([2]; PO 10 mg/kg) [ng/mL] | AUC(0-t) [2, 4] [ng·h/mL] | clearance ([2]; IV 2 mg/kg) [mL/min/kg] | half-life ([2]; IV 2 mg/kg) [h] | Vd ([2]; IV 2 mg/kg) [L/kg] |
| --- | --- | --- | --- | --- | --- | --- | --- | --- |
| CO[C@@H]1CN(c2ccc3c(n2)[C@@H](C)CN(c2cc(C)nc4c2cnn4C)C3)C[C@H]1N [Example 63, (3R,4R)-4-methoxy-1-[(8S)-6-(1,6-dimethylpyrazolo[3,4-b]pyridin-4-yl)-8-methyl-7,8-dihydro-5H-1,6-naphthyridin-2-yl]pyrrolidin-3-amine] | 0.43 | 98 | 80700 | 22200 | 394000 | 0.26 | 18.3 | 0.38 |
| C[C@H]1CN(c2ccnc3c2cnn3C)Cc2ccc(OC[C@@H]3CNCCN3)cc21 [Example 19, (4R)-4-methyl-2-(1-methylpyrazolo[3,4-b]pyridin-4-yl)-6-[[(2S)-piperazin-2-yl]methoxy]-3,4-dihydro-1H-isoquinoline] | 0.05 | 32 | 887 | 102 | 1410 | 34 | 8.9 | 16 |
| CO[C@@H]1CN(c2ccc3c(c2)[C@@H](C)CN(c2ccnc4c2cnn4C)C3)C[C@H]1N [Example 20, (3R,4R)-4-methoxy-1-[(4R)-4-methyl-2-(1-methylpyrazolo[3,4-b]pyridin-4-yl)-3,4-dihydro-1H-isoquinolin-6-yl]pyrrolidin-3-amine] | 0.49 | 60 | 5480 | 1140 | 16500 | 6 | 3.3 | 1.5 |
| C[C@H]1CN(c2ccnc3c2cnn3C)Cc2ccc(OC[C@H]3CNCCN3)cc21 [Example 18, (4R)-4-methyl-2-(1-methylpyrazolo[3,4-b]pyridin-4-yl)-6-[[(2R)-piperazin-2-yl]methoxy]-3,4-dihydro-1H-isoquinoline] | 0.11 | – | – | – | – | – | – | – |
| C[C@H]1CN(c2ccnc3c2cnn3C)Cc2ccc(N3CCNCC3)cc21 [Example 1, (4R)-4-methyl-2-(1-methylpyrazolo[3,4-b]pyridin-4-yl)-6-piperazin-1-yl-3,4-dihydro-1H-isoquinoline] | – | 113 | 1290 | 474 | 7270 | 24 | 6.9 | 11.2 |
| CO[C@@H]1CN(c2ccc3c(c2)[C@@H](C)CN(c2cc(C)nc4c2cnn4C)C3)C[C@H]1N [Example 23, (3R,4R)-4-methoxy-1-[(4R)-2-(1,6-dimethylpyrazolo[3,4-b]pyridin-4-yl)-4-methyl-3,4-dihydro-1H-isoquinolin-6-yl]pyrrolidin-3-amine] | – | 73 | 7550 | 1600 | 27500 | 3.7 | 10.5 | 2.7 |

Source: patent US20240317735A1, “HYDROISOQUINOLINE OR HYDRONAPHTHYRIDINE COMPOUNDS FOR THE TREATMENT OF AUTOIMMUNE DISEASE” (Hoffmann-La Roche Inc., priority 2020, published 2024)
